From ChEMBL document CHEMBL1201862, “PubChem BioAssay data set” (2004)
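Briefly, cells in 96-well plates were exposed to five compound concentrations for 48 h, and endpoints were estimated by linear interpolation. The concentration for 50% growth inhibition is given as GI50.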 Calls of active or inactive are those of the source. Rule as the data show it: active = GI50 up to about 1.1 µM and inactive = higher.

Experiments:
Assay in all cases: inhibition of tumour cell growth, NCI panel, 48 h
HT-29 = tested on: HT-29
SW-620 = tested on: SW-620
OVCAR-4 = tested on: OVCAR-4
OVCAR-3 = tested on: OVCAR-3
KM-20L2 = tested on: KM-20L2
UACC-62 = tested on: UACC-62
NCI-H226 = tested on: NCI-H226
K562 = tested on: K562
HOP-92 = tested on: HOP-92
OVCAR-5 = tested on: OVCAR-5
SK-MEL-5 = tested on: SK-MEL-5
IGROV-1 = tested on: IGROV-1
LOX IMVI = tested on: LOX IMVI
RPMI-8226 = tested on: RPMI-8226
Malme-3M = tested on: Malme-3M
RXF 393 = tested on: RXF 393
M14 = tested on: M14
HCC 2998 = tested on: HCC 2998
786-0 = tested on: 786-0
NCI-H522 = tested on: NCI-H522

Measured: GI50

COc1cc(OC)c(C2CC=Cc3c(OC)cc(OC)c(OC)c32)cc1OC (configuration not stated)
inactive: HT-29 > 100 µM | SW-620 > 100 µM | OVCAR-4 > 100 µM | OVCAR-3 > 100 µM | KM-20L2 > 100 µM | UACC-62 > 100 µM | NCI-H226 > 100 µM | K562 > 100 µM | HOP-92 > 100 µM | OVCAR-5 > 100 µM | SK-MEL-5 > 100 µM | IGROV-1 > 100 µM | LOX IMVI > 100 µM | RPMI-8226 > 100 µM | Malme-3M > 100 µM | RXF 393 > 100 µM | M14 > 100 µM | HCC 2998 > 100 µM | 786-0 > 100 µM

CCOC(=O)/C(C#N)=C\C=C1/C=CN=C2NCCN21
inactive: HT-29 > 100 µM | SW-620 > 100 µM | OVCAR-4 > 100 µM | OVCAR-3 > 100 µM | KM-20L2 > 100 µM | NCI-H522 > 100 µM | UACC-62 > 100 µM | NCI-H226 > 100 µM | K562 > 100 µM | SK-MEL-5 > 100 µM | IGROV-1 > 100 µM | LOX IMVI > 100 µM | RPMI-8226 > 100 µM | Malme-3M > 100 µM | RXF 393 99.5 µM | M14 > 100 µM | HCC 2998 > 100 µM | 786-0 > 100 µM

O=[N+]([O-])c1cccc(C2ON2C2CCCCC2)c1 (configuration not stated)
inactive: HT-29 11.5 µM | SW-620 10 µM | OVCAR-4 17.8 µM | OVCAR-3 18.5 µM | KM-20L2 22.3 µM | NCI-H522 17.4 µM | UACC-62 20.4 µM | K562 14.4 µM | HOP-92 45.9 µM | OVCAR-5 > 100 µM | SK-MEL-5 17.7 µM | IGROV-1 20 µM | RPMI-8226 2.94 µM | Malme-3M 22.8 µM | M14 18.5 µM | HCC 2998 17.2 µM | 786-0 17.4 µM

Cc1cc2c(cc1C)NC(=O)C(NC(=O)/C=C/c1ccccc1)C=N2 (configuration not stated)
inactive: SW-620 4.73 µM | OVCAR-4 38.9 µM | OVCAR-3 20.1 µM | KM-20L2 45.3 µM | NCI-H522 16.3 µM | UACC-62 34.8 µM | NCI-H226 95.3 µM | K562 22.5 µM | OVCAR-5 > 100 µM | SK-MEL-5 29.9 µM | IGROV-1 34.8 µM | LOX IMVI 22.7 µM | RPMI-8226 25.5 µM | Malme-3M 35.9 µM | RXF 393 16.1 µM | M14 34 µM | HCC 2998 48.6 µM | 786-0 30.3 µM
